This passage reports IC50, MTD and anticancer activity results from patent US4644085A, “Rooperol and its derivates” (Rooperol (NA) NV, priority 1985, dated 1987).

One data set concerns CHANG CO[…] No. CCL20.2. Nature of the data set: Inhibition of cell growth: Chang conjunctival. It is filed as cell-based. The following applies: 96 h, read-out: MINIMUM INHIBITORY CONCENTRATIONS (RANGE) WHICH PRODUCE APPROXIMATELY 50% CELL GROWTH REDUCTION
How it is done: (§1) The cell cultures were grown under standard conditions at 37° C. in Eagle's Minimal Essential Medium (M.E.M., Gibco), with glutamine and non-essential amino acids, supplemented with 10% foetal calf serum (State Vaccine Institute, Cape Town). Cells for subcultures were obtained from 90-100% confluent cell cultures by trypsinisation with Ca^++ Mg^++ --free EDTA-Dulbecco Buffer, containing 0.25% trypsin. Trypsin was inactivated by placing the harvested cell suspension into M.E.M. containing 10% foetal calf serum. The cell suspensions were then suitably diluted to the final volume, depending on the number of cells obtained and the growth profile of the cell type. The diluted cell suspensions were then dispensed at the rate of 1.0 ml into prepared cell culture flasks containing 8.9 ml culture media. These cultures were incubated for 24 hours and the media changed before adding the test compounds.
(§2) The test compounds were dissolved in dimethylsulphoxide (Merck) and added at the rate of 0.1 ml to the media in a dilution to give the desired end concentration.
(§3) In each series of experiments, control cultures were treated with equivalent amounts of solvent without the test compound. The cultures were examined daily usually for a period of four days and cell growth and other cytopathic effects were records. Abnormal cell patterns and sizes were also determined during counting.
(vii) Chang Chang Conjunctival cells

Data set [1] deals with HUMAN CERVICAL CANCER HeLa ATCC No. CCL2. Nature of the data set: Inhibition of cell growth: human cervical cancer HeLa. Format: cell-based. The following applies: 96 h, media, usually four days, read-out: MINIMUM INHIBITORY CONCENTRATIONS (RANGE) WHICH PRODUCE APPROXIMATELY 50% CELL GROWTH REDUCTION
On the procedure:
as §1, §2, §3
(iv) HeLa Human Cervical Cancer

In the next data set the test system is MOUSE SARCOMA M(52)B. Nature of the data set: Inhibition of cell growth: mouse sarcoma M(52)B. The following applies: 96 h, media, usually four days, read-out: MINIMUM INHIBITORY CONCENTRATIONS (RANGE) WHICH PRODUCE APPROXIMATELY 50% CELL GROWTH REDUCTION
Format: cell-based. How it is done:
as §1, §2, §3
(i) M (52) B Mouse Sarcoma

In a further data set the test system is P27-HUMAN MESOTHELIOMA
Nature of the data set: Inhibition of cell growth: P27 human mesothelioma. Format: cell-based. As to conditions: 96 h, media, usually four days, read-out: MINIMUM INHIBITORY CONCENTRATIONS (RANGE) WHICH PRODUCE APPROXIMATELY 50% CELL GROWTH REDUCTION
How it is done:
as §1, §2, §3
(v) P27 Human Mesothelioma Cells

Another data set deals with HUMAN […] HOC. Nature of the data set: Inhibition of cell growth: human oesophagal carcinoma HOC. Format: cell-based. As to conditions: 96 h, read-out: MINIMUM INHIBITORY CONCENTRATIONS (RANGE) WHICH PRODUCE APPROXIMATELY 50% CELL GROWTH REDUCTION
On the procedure:
as §1, §2, §3
(iii) HOC Human Oesophagal Carcinoma

Data set [2] concerns "LOOT'S" CELLS HUMAN ADENOCARCINOMA
Briefly: Inhibition of cell growth: "Loot's" cells human adenocarcinoma. It is filed as cell-based. As to conditions: 96 h, media, usually four days, read-out: MINIMUM INHIBITORY CONCENTRATIONS (RANGE) WHICH PRODUCE APPROXIMATELY 50% CELL GROWTH REDUCTION
How it is done:
as §1, §2, §3
(vi) "Loots" cells Human Derived Adenocarcinoma

The next data set deals with MOUSE MELANOMA B16-BL6. Briefly: Inhibition of cell growth: mouse melanoma B16-BL6. It is filed as cell-based. The following applies: 96 h, media, usually four days, read-out: MINIMUM INHIBITORY CONCENTRATIONS (RANGE) WHICH PRODUCE APPROXIMATELY 50% CELL GROWTH REDUCTION
On the procedure: as §1, §2, §3
(ii) Mel B16 BL06 Mouse Melanoma

A short description of the next data set: Acute toxicity in mice. The following applies: mouse, in vivo, po, P.O., single dose in vegetable oil, 7 days observation, read-out: MINIMUM TOLERATED SINGLE DOSE. How it is done: (§4) Some compounds were subjected to preliminary acute toxicity tests in mice and rats. Solutions or suspensions of the selected compounds were prepared in vegetable oil. The volumes administered were kept constant at 10.0 ml per kg. In each case equal numbers of male and female animals were treated with a single dose. All animals were observed over 7 days for signs of toxic and/or pharmacodynamic effects. Necropsies were performed on all surviving animals.

The nature of a further data set: Acute toxicity in rats. The following applies: rat, in vivo, po, P.O., single dose in vegetable oil, 7 days observation, read-out: MINIMUM TOLERATED SINGLE DOSE. On the procedure:
as §4

A further data set concerns cancer. The following applies: reported in EPO Patent Application No. 83103765.0; cited from earlier work.

Values after ≈ are worked out from the molar mass of the structure shown. Where only a bound is given, the exact number is not on record here.

For the molecule `C=CC(=O)C#Cc1ccccc1` [Product 26], the IC50 was 2.5 to 10 µg/mL (≈ 16 to 64 µM) with CHANG CO[…] No. CCL20.2 and 20 to 40 µg/mL (≈ 128 to 256 µM) in data set [1].
For the molecule `C(#Cc1ccc2c(c1)OCO2)C/C=C/c1ccc2c(c1)OCO2` [Product 7], the IC50 with MOUSE SARCOMA M(52)B was 60 to 80 µg/mL (≈ 196 to 261 µM).
In the case of `C/C=C/C(O)C#CCOC1CCCCO1` (centres unmarked) [Product 21], in data set [1], the IC50 lay in the range of 25 to 50 µg/mL (≈ 119 to 238 µM).
As for `Oc1ccc(C#CC/C=C/c2ccc(O)c(O)c2)cc1O` [Product 1, 3',3',4',4',-tetrahydroxyrooperol], the IC50 in the data set on P27-HUMAN MESOTHELIOMA was in the range of 10 to 25 µg/mL (≈ 35.4 to 88.6 µM); with HUMAN […] HOC it was 25 to 50 µg/mL (≈ 88.6 to 177 µM); in data set [2], 12.5 to 25 µg/mL (≈ 44.3 to 88.6 µM); in the data set on CHANG CO[…] No. CCL20.2, 20 to 25 µg/mL (≈ 70.8 to 88.6 µM); in data set [1], 20 to 40 µg/mL (≈ 70.8 to 142 µM); in the data set with MOUSE SARCOMA M(52)B, 12.5 to 25 µg/mL (≈ 44.3 to 88.6 µM). Further, the IC50 in the data set on MOUSE MELANOMA B16-BL6 fell in the range of 10 to 25 µg/mL (≈ 35.4 to 88.6 µM).
Consider `C(#Cc1ccccc1)CC1CO1` (centres unmarked) [Product 24], for which the IC50 in [1] lay in the range of 25 to 50 µg/mL (≈ 158 to 316 µM).
On the same count and under the same terms, in the case of `COc1ccc(C#CC(O)/C=C/c2ccco2)cc1OC` (centres unmarked) [Product 15] it was 25 to 50 µg/mL (≈ 87.9 to 176 µM).
`C=CCC#Cc1ccccc1` [Product 2]: the figures for the IC50 (in the data set on HUMAN […] HOC; in [1]) were 50 to 100 µg/mL (≈ 352 to 703 µM) and 50 to 75 µg/mL (≈ 352 to 527 µM), respectively. The figures for the MTD at 168 h in the data set “Acute toxicity in mice” and in the data set “Acute toxicity in rats” were ≥ 1000 mg/kg and 500 mg/kg, respectively.
For the molecule `O=C(C#Cc1ccccc1)/C=C/c1ccccc1` [Product 25], the IC50 was in the range of 2.5 to 10 µg/mL (≈ 10.8 to 43.1 µM) in the data set on CHANG CO[…] No. CCL20.2, 5 to 10 µg/mL (≈ 21.5 to 43.1 µM) in data set [1] and 12.5 to 25 µg/mL (≈ 53.8 to 108 µM) in the data set with MOUSE MELANOMA B16-BL6.
Turning to `C/C=C/C(O)C#CCO` (centres unmarked) [Product 29], the IC50 in data set [1] was 50 µg/mL (≈ 396 µM).
For the molecule `Brc1ccc(C#CC/C=C/c2ccccc2)cc1` [Product 10], the IC50 in data set [1] was 25 to 50 µg/mL (≈ 84.1 to 168 µM).
Consider `CCOC(=O)C(=Cc1ccccc1)CC#Cc1ccccc1` [Product 23], for which the IC50 is 20 to 50 µg/mL (≈ 68.9 to 172 µM) in the data set with HUMAN […] HOC; 25 to 50 µg/mL (≈ 86.1 to 172 µM) in data set [2]; 25 to 75 µg/mL (≈ 86.1 to 258 µM) in the data set on CHANG CO[…] No. CCL20.2; 60 to 100 µg/mL (≈ 207 to 344 µM) in data set [1]; 75 to 100 µg/mL (≈ 258 to 344 µM) with MOUSE SARCOMA M(52)B. Also, the MTD at 168 h in the data set “Acute toxicity in mice” is 750 mg/kg.
As to `C=CC(O)C#Cc1ccccc1` (centres unmarked) [Product 20], the IC50 in [1] lay in the range of 25 to 50 µg/mL (≈ 158 to 316 µM).
With `COc1ccc(C#CC/C=C/c2ccccc2)cc1` [Product 6], the IC50 was in the range of 10 to 20 µg/mL (≈ 40.3 to 80.5 µM) in the data set on HUMAN […] HOC and 60 to 100 µg/mL (≈ 242 to 403 µM) in [1].
In the case of `OC(C#Cc1ccccc1)/C=C/c1ccco1` (centres unmarked) [Product 17], the values for the IC50 (in the data set with P27-HUMAN MESOTHELIOMA; in data set [1]) were 20 to 50 µg/mL (≈ 89.2 to 223 µM) and 20 to 25 µg/mL (≈ 89.2 to 111 µM), respectively. The MTD at 168 h in the data set “Acute toxicity in mice” and in “Acute toxicity in rats” was 500 mg/kg in each case.
In the case of `OCC#CC/C=C/c1ccccc1` [Product 31], in [1], the IC50 lay in the range of 25 to 50 µg/mL (≈ 145 to 290 µM).
With `OC(CCl)CC#Cc1ccccc1` (centres unmarked) [Product 11], the IC50 in [1] was 25 to 50 µg/mL (≈ 128 to 257 µM). In “Acute toxicity in mice”, the MTD at 168 h is ≥ 1000 mg/kg.
In the case of `OC(C#Cc1ccccc1)C=C(Cl)c1ccccc1` (centres unmarked) [Product 19], the IC50 in data set [1] lay within 20 to 40 µg/mL (≈ 74.4 to 149 µM). Besides, in the data set “Acute toxicity in mice”, the MTD at 168 h was found to be 250 mg/kg.
Consider `COc1ccc(C#CC/C=C/c2ccccc2)cc1OC` [Product 9], for which the IC50 in data set [1] was 60 to 100 µg/mL (≈ 216 to 359 µM).
For `COc1ccc(C#CC/C=C/c2ccc(OC)cc2)cc1` [Product 5], the IC50 with HUMAN […] HOC is ≥ 25 µg/mL.
For `OC(C#Cc1ccccc1)/C=C/c1ccccc1` (centres unmarked) [Product 16], the IC50 in the data set on P27-HUMAN MESOTHELIOMA lay within 25 to 50 µg/mL (≈ 107 to 213 µM); in data set [2] it was 12.5 to 25 µg/mL (≈ 53.4 to 107 µM); in data set [1] it was 25 to 50 µg/mL (≈ 107 to 213 µM); in the data set on MOUSE SARCOMA M(52)B, 20 to 40 µg/mL (≈ 85.4 to 171 µM); with MOUSE MELANOMA B16-BL6, 20 to 50 µg/mL (≈ 85.4 to 213 µM). In addition, the MTD at 168 h in “Acute toxicity in mice” and in the data set “Acute toxicity in rats” was 500 mg/kg throughout.
In the case of `C(#Cc1ccccc1)C/C=C/c1ccccc1` [Product 3], the IC50 in the data set on P27-HUMAN MESOTHELIOMA fell in the range of 25 to 50 µg/mL (≈ 115 to 229 µM); in the data set on HUMAN […] HOC, 25 to 50 µg/mL (≈ 115 to 229 µM); in [1] it was 40 to 60 µg/mL (≈ 183 to 275 µM); in the data set with MOUSE SARCOMA M(52)B, 50 to 75 µg/mL (≈ 229 to 344 µM). For the same molecule, the results for the MTD at 168 h in the data set “Acute toxicity in mice” and in “Acute toxicity in rats” were 500 mg/kg and 1500 mg/kg, respectively.
As for `COc1ccc(C#CC/C=C/c2ccc(OC)c(OC)c2)cc1OC` [Product 8], the IC50 in the data set on P27-HUMAN MESOTHELIOMA was 40 to 60 µg/mL (≈ 118 to 177 µM); in data set [1], 60 to 100 µg/mL (≈ 177 to 296 µM); in the data set on MOUSE SARCOMA M(52)B, 60 to 80 µg/mL (≈ 177 to 236 µM).
As for `C=CCC#CCO` [Product 30], the IC50 in [1] stood at 50 µg/mL (≈ 520 µM).
Still for that read-out and setting: under `C=CCC#CCOC1CCCCO1` (centres unmarked) [Product 13] stands 50 to 100 µg/mL (≈ 277 to 555 µM).
Still for that read-out and setting: under `COc1ccc(C#CC(O)/C=C/c2ccccc2)cc1OC` (centres unmarked) [Product 18] stands 25 to 50 µg/mL (≈ 84.9 to 170 µM).
For `OC[C@H]1O[C@@H](Oc2ccc(C#CC/C=C/c3ccc(O[C@@H]4O[C@H](CO)[C@@H](O)[C@H](O)[C@H]4O)c(O)c3)cc2O)[C@H](O)[C@@H](O)[C@@H]1O` [Hypoxoside, (E)-1,5-bis(3',4'-dihydroxyphenyl)pent-4-en-1-yne 4',4'-di-B-D-glucopyranoside], the anticancer activity result with cancer was “has anticancer activity”.
